Results from US4156724A, “N-acylamino-alpha-arylacetamido cephalosporins and antibacterial compositions and methods containing them” (Sumitomo Chemical Company, Limited, priority 1974, dated 1979).
Converted amounts (≈) assume the structure as drawn.

Legend:
Assay type in all cases: cell-based
[1] = test system: Escherichia coli NIHJ; assay: Minimum Inhibitory Concentration, Escherichia coli NIHJ; conditions: Escherichia coli NIHJ; for MIC: read-out: Minimum Inhibitory Concentration
Experimental: (§1) anti-microbial activity tests were carried out on the compounds obtained in the Examples.

[2] = test system: Pseudomonas aeruginosa 104; assay: Minimum Inhibitory Concentration, Pseudomonas aeruginosa 104; conditions: Pseudomonas aeruginosa 104; for MIC: read-out: Minimum Inhibitory Concentration
Experimental: as §1

[3] = test system: Proteus vulgaris HX 19; assay: Minimum Inhibitory Concentration, Proteus vulgaris HX 19; conditions: Proteus vulgaris HX 19; for MIC: HX19, read-out: Minimum Inhibitory Concentration
Experimental: as §1

[4] = test system: Klebsiella pneumoniae 602; assay: Minimum Inhibitory Concentration, Klebsiella pneumoniae 602; conditions: for MIC: Klebsiella pneumoniae, 602, Klebsiella pneumoniae 602, read-out: Minimum Inhibitory Concentration; for Minimum Inhibitory Concentration: Klebsiella pneumoniae 602
Experimental: as §1

[5] = test system: Enterobacter aerogeneus No. 75; assay: Minimum Inhibitory Concentration, Enterobacter aerogeneus No. 75; conditions: Enterobacter aerogeneus No. 75; for MIC: read-out: Minimum Inhibitory Concentration
Experimental: as §1

[6] = test system: Serratia No. 72; assay: Minimum Inhibitory Concentration, Serratia No. 72
Experimental: as §1

[7] = test system: Staphylococcus aureus 209 P; assay: Minimum Inhibitory Concentration, Staphylococcus aureus 209 P; conditions: Staphylococcus aureus 209 P; for MIC: read-out: Minimum Inhibitory Concentration
Experimental: as §1

[8] = test system: Staphylococcus aureus FS 289; assay: Minimum Inhibitory Concentration, Staphylococcus aureus FS 289; conditions: Staphylococcus aureus FS 289, strain resistant to penicillin; for MIC: FS289, read-out: Minimum Inhibitory Concentration
Experimental: as §1
*Staphylococcus aureus FS 289: strain resistant to penicillin

SMILES: O=C(O)C1=C(CSc2cnn[nH]2)CSC2C(NC(=O)[C@H](NC(=O)c3cnc4cccnc4c3O)c3ccc(O)cc3)C(=O)N12 (stereo partly shown) [Example 134]
- MIC [1]: 3.13 µg/mL (≈ 4.93 µM)
- MIC [2]: 3.13 µg/mL (≈ 4.93 µM)
- MIC [3]: 0.1 µg/mL (≈ 0.158 µM)
- MIC [4]: 1.56 µg/mL (≈ 2.46 µM)
- MIC [5]: 3.13 µg/mL (≈ 4.93 µM)
- MIC [6]: 25 µg/mL (≈ 39.4 µM)
- MIC [7]: 0.78 µg/mL (≈ 1.23 µM)
- MIC [8]: 3.13 µg/mL (≈ 4.93 µM)

SMILES: CC(=O)OCC1=C(C(=O)[O-])N2C(=O)C(NC(=O)C(NC(=O)c3cnc4nc(C)cnc4c3O)c3ccc(O)cc3)C2SC1.[Na+] (stereo not shown) [Example 136]
- Minimum Inhibitory Concentration [1]: 3.13 µg/mL
- Minimum Inhibitory Concentration [2]: 6.25 µg/mL
- Minimum Inhibitory Concentration [3]: 0.78 µg/mL
- Minimum Inhibitory Concentration [4]: 3.13 µg/mL
- Minimum Inhibitory Concentration [5]: 6.25 µg/mL
- Minimum Inhibitory Concentration [6]: 100 µg/mL
- Minimum Inhibitory Concentration [7]: 0.78 µg/mL
- Minimum Inhibitory Concentration [8]: 6.25 µg/mL

SMILES: CSc1ncc2c(O)c(C(=O)NC(C(=O)NC3C(=O)N4C(C(=O)[O-])=C(COC(C)=O)CSC34)c3ccc(O)cc3)cnc2n1.[Na+] (stereo not shown) [Example 137]
- Minimum Inhibitory Concentration [1]: 12.5 µg/mL
- Minimum Inhibitory Concentration [2]: 12.5 µg/mL
- Minimum Inhibitory Concentration [3]: 1.56 µg/mL
- Minimum Inhibitory Concentration [4]: 12.5 µg/mL
- Minimum Inhibitory Concentration [5]: 50 µg/mL
- Minimum Inhibitory Concentration [6]: 100 µg/mL
- Minimum Inhibitory Concentration [7]: 1.56 µg/mL
- Minimum Inhibitory Concentration [8]: 12.5 µg/mL

SMILES: CC(=O)OCC1=C(C(=O)[O-])N2C(=O)C(NC(=O)C(NC(=O)c3cnc4cccnc4c3O)c3cccc(O)c3)C2SC1.[Na+] (stereo not shown) [Example 138]
- Minimum Inhibitory Concentration [1]: 3.13 µg/mL
- Minimum Inhibitory Concentration [2]: 6.25 µg/mL
- Minimum Inhibitory Concentration [3]: 0.78 µg/mL
- Minimum Inhibitory Concentration [4]: 1.56 µg/mL
- Minimum Inhibitory Concentration [5]: 6.25 µg/mL
- Minimum Inhibitory Concentration [6]: 50 µg/mL
- Minimum Inhibitory Concentration [7]: 0.78 µg/mL
- Minimum Inhibitory Concentration [8]: 6.25 µg/mL

SMILES: CC(=O)OCC1=C(C(=O)[O-])N2C(=O)C(NC(=O)C(NC(=O)c3cnc4ncncc4c3O)c3ccc(O)cc3)C2SC1.[Na+] (stereo not shown) [Example 139]
- Minimum Inhibitory Concentration [1]: 12.5 µg/mL
- Minimum Inhibitory Concentration [2]: 12.5 µg/mL
- Minimum Inhibitory Concentration [3]: 3.13 µg/mL
- Minimum Inhibitory Concentration [4]: 6.25 µg/mL
- Minimum Inhibitory Concentration [5]: 50 µg/mL
- Minimum Inhibitory Concentration [6]: 50 µg/mL
- Minimum Inhibitory Concentration [7]: 1.56 µg/mL
- Minimum Inhibitory Concentration [8]: 12.5 µg/mL

SMILES: CSc1cnc2c(O)c(C(=O)NC(C(=O)NC3C(=O)N4C(C(=O)[O-])=C(COC(C)=O)CSC34)c3cccc(O)c3)cnc2n1.[Na+] (stereo not shown) [Example 140]
- Minimum Inhibitory Concentration [1]: 3.13 µg/mL
- Minimum Inhibitory Concentration [2]: 6.25 µg/mL
- Minimum Inhibitory Concentration [3]: 1.56 µg/mL
- Minimum Inhibitory Concentration [4]: 6.25 µg/mL
- Minimum Inhibitory Concentration [5]: 12.5 µg/mL
- Minimum Inhibitory Concentration [6]: 50 µg/mL
- Minimum Inhibitory Concentration [7]: 0.78 µg/mL
- Minimum Inhibitory Concentration [8]: 6.25 µg/mL

SMILES: CC(=O)OCC1=C(C(=O)[O-])N2C(=O)C(NC(=O)C(NC(=O)c3cnc4cncnc4c3O)c3ccc(O)cc3)C2SC1.[Na+] (stereo not shown) [Example 141]
- Minimum Inhibitory Concentration [1]: 6.25 µg/mL
- Minimum Inhibitory Concentration [2]: 6.25 µg/mL
- Minimum Inhibitory Concentration [3]: 0.78 µg/mL
- Minimum Inhibitory Concentration [4]: 6.25 µg/mL
- Minimum Inhibitory Concentration [5]: 12.5 µg/mL
- Minimum Inhibitory Concentration [6]: 50 µg/mL
- Minimum Inhibitory Concentration [7]: 0.78 µg/mL
- Minimum Inhibitory Concentration [8]: 6.25 µg/mL

SMILES: CC(=O)OCC1=C(C(=O)[O-])N2C(=O)C(NC(=O)C(NC(=O)c3cnc4cccnc4c3O)c3ccc(O)c(O)c3)C2SC1.[Na+] (stereo not shown) [Example 142]
- Minimum Inhibitory Concentration [1]: 3.13 µg/mL
- Minimum Inhibitory Concentration [2]: 6.25 µg/mL
- Minimum Inhibitory Concentration [3]: 0.78 µg/mL
- Minimum Inhibitory Concentration [4]: 3.13 µg/mL
- Minimum Inhibitory Concentration [5]: 6.25 µg/mL
- Minimum Inhibitory Concentration [6]: 50 µg/mL
- Minimum Inhibitory Concentration [7]: 1.56 µg/mL
- Minimum Inhibitory Concentration [8]: 6.25 µg/mL

SMILES: COc1cc(C(NC(=O)c2cnc3cccnc3c2O)C(=O)NC2C(=O)N3C(C(=O)[O-])=C(COC(C)=O)CSC23)ccc1O.[Na+] (stereo not shown) [Example 143]
- Minimum Inhibitory Concentration [1]: 6.25 µg/mL
- Minimum Inhibitory Concentration [2]: 6.25 µg/mL
- Minimum Inhibitory Concentration [3]: 0.78 µg/mL
- Minimum Inhibitory Concentration [4]: 3.13 µg/mL
- Minimum Inhibitory Concentration [5]: 12.5 µg/mL
- Minimum Inhibitory Concentration [6]: 100 µg/mL
- Minimum Inhibitory Concentration [7]: 3.13 µg/mL
- Minimum Inhibitory Concentration [8]: 12.5 µg/mL

SMILES: CC(=O)OCC1=C(C(=O)[O-])N2C(=O)C(NC(=O)C(NC(=O)c3cnc4cccnc4c3O)c3cc(Cl)c(O)c(Cl)c3)C2SC1.[Na+] (stereo not shown) [Example 144]
- Minimum Inhibitory Concentration [1]: 6.25 µg/mL
- Minimum Inhibitory Concentration [2]: 6.25 µg/mL
- Minimum Inhibitory Concentration [3]: 1.56 µg/mL
- Minimum Inhibitory Concentration [4]: 6.25 µg/mL
- Minimum Inhibitory Concentration [5]: 12.5 µg/mL
- Minimum Inhibitory Concentration [6]: 100 µg/mL
- Minimum Inhibitory Concentration [7]: 3.13 µg/mL
- Minimum Inhibitory Concentration [8]: 12.5 µg/mL

SMILES: CC(=O)OCC1=C(C(=O)[O-])N2C(=O)C(NC(=O)C(NC(=O)c3cnc4cccnc4c3O)c3ccc(O)c(F)c3)C2SC1.[Na+] (stereo not shown) [Example 145]
- Minimum Inhibitory Concentration [1]: 3.13 µg/mL
- Minimum Inhibitory Concentration [2]: 6.25 µg/mL
- Minimum Inhibitory Concentration [3]: 0.39 µg/mL
- Minimum Inhibitory Concentration [4]: 3.13 µg/mL
- Minimum Inhibitory Concentration [5]: 12.5 µg/mL
- Minimum Inhibitory Concentration [6]: 100 µg/mL
- Minimum Inhibitory Concentration [7]: 0.78 µg/mL
- Minimum Inhibitory Concentration [8]: 6.25 µg/mL

SMILES: CSc1cnc2c(O)c(C(=O)N[C@@H](C(=O)NC3C(=O)N4C(C(=O)O)=C(CSc5nnnn5C)CSC34)c3ccc(O)cc3)cnc2n1 (stereo partly shown) [Example 146]
- MIC [1]: 1.56 µg/mL (≈ 2.24 µM)
- MIC [2]: 3.13 µg/mL (≈ 4.49 µM)
- MIC [3]: 1.56 µg/mL (≈ 2.24 µM)
- MIC [4]: 3.13 µg/mL (≈ 4.49 µM)
- MIC [5]: 6.25 µg/mL (≈ 8.97 µM)
- MIC [6]: 25 µg/mL (≈ 35.9 µM)
- MIC [7]: 0.78 µg/mL (≈ 1.12 µM)
- MIC [8]: 12.5 µg/mL (≈ 17.9 µM)

SMILES: Cn1nnnc1SCC1=C(C(=O)O)N2C(=O)C(NC(=O)[C@H](NC(=O)c3cnc4nc(N5CCCC5)cnc4c3O)c3ccc(O)cc3)C2SC1 (stereo partly shown) [Example 147]
- MIC [1]: 3.13 µg/mL (≈ 4.35 µM)
- MIC [2]: 3.13 µg/mL (≈ 4.35 µM)
- MIC [3]: 1.56 µg/mL (≈ 2.17 µM)
- MIC [4]: 3.13 µg/mL (≈ 4.35 µM)
- MIC [5]: 6.25 µg/mL (≈ 8.68 µM)
- MIC [6]: 25 µg/mL (≈ 34.7 µM)
- MIC [7]: 1.56 µg/mL (≈ 2.17 µM)
- MIC [8]: 12.5 µg/mL (≈ 17.4 µM)

SMILES: Cc1nnc(SCC2=C(C(=O)O)N3C(=O)C(NC(=O)[C@H](NC(=O)c4cnc5nc(C)c(C)nc5c4O)c4ccc(O)cc4)C3SC2)s1 (stereo partly shown) [Example 148]
- MIC [1]: 3.13 µg/mL (≈ 4.51 µM)
- MIC [2]: 3.13 µg/mL (≈ 4.51 µM)
- MIC [3]: 1.56 µg/mL (≈ 2.25 µM)
- MIC [4]: 3.13 µg/mL (≈ 4.51 µM)
- MIC [5]: 6.25 µg/mL (≈ 9 µM)
- MIC [6]: 25 µg/mL (≈ 36 µM)
- MIC [7]: 1.56 µg/mL (≈ 2.25 µM)
- MIC [8]: 12.5 µg/mL (≈ 18 µM)

SMILES: O=C(O)C1=C(CSc2ccc(O)nn2)CSC2C(NC(=O)[C@H](NC(=O)c3cnc4cccnc4c3O)c3ccc(O)c(Cl)c3)C(=O)N12 (stereo partly shown) [Example 149]
- MIC [1]: 3.13 µg/mL (≈ 4.5 µM)
- MIC [2]: 6.25 µg/mL (≈ 8.98 µM)
- MIC [3]: 0.39 µg/mL (≈ 0.56 µM)
- MIC [4]: 3.13 µg/mL (≈ 4.5 µM)
- MIC [5]: 6.25 µg/mL (≈ 8.98 µM)
- MIC [6]: 25 µg/mL (≈ 35.9 µM)
- MIC [7]: 0.78 µg/mL (≈ 1.12 µM)
- MIC [8]: 6.25 µg/mL (≈ 8.98 µM)

SMILES: O=C(O)C1=C(CSc2nnc(CO)s2)CSC2C(NC(=O)[C@H](NC(=O)c3cnc4cccnc4c3O)c3ccc(O)cc3)C(=O)N12 (stereo partly shown) [Example 150]
- MIC [1]: 3.13 µg/mL (≈ 4.59 µM)
- MIC [2]: 3.13 µg/mL (≈ 4.59 µM)
- MIC [3]: 0.2 µg/mL (≈ 0.293 µM)
- MIC [4]: 1.56 µg/mL (≈ 2.29 µM)
- MIC [5]: 6.25 µg/mL (≈ 9.17 µM)
- MIC [6]: 12.5 µg/mL (≈ 18.3 µM)
- MIC [7]: 0.78 µg/mL (≈ 1.14 µM)
- MIC [8]: 6.25 µg/mL (≈ 9.17 µM)

SMILES: CN(C)c1ccc2ncc(C(=O)N[C@@H](C(=O)NC3C(=O)N4C(C(=O)O)=C(CSc5n[nH]c(=O)s5)CSC34)c3ccc(O)c(F)c3)c(O)c2n1 (stereo partly shown) [Example 151]
- MIC [1]: 1.56 µg/mL (≈ 2.14 µM)
- MIC [2]: 6.25 µg/mL (≈ 8.58 µM)
- MIC [3]: 0.39 µg/mL (≈ 0.535 µM)
- MIC [4]: 1.56 µg/mL (≈ 2.14 µM)
- MIC [5]: 6.25 µg/mL (≈ 8.58 µM)
- MIC [6]: 12.5 µg/mL (≈ 17.2 µM)
- MIC [7]: 0.78 µg/mL (≈ 1.07 µM)
- MIC [8]: 6.25 µg/mL (≈ 8.58 µM)
